Data taken from patent US6451254B1, “Sterilization of diffusion-restricted area by revaporizing the condensed vapor” (Ethicon, Inc., priority 1998, dated 2002).
Where two headings read alike, the source gives them in different places.

Key:
[1] = tested on: Bacillus stearothermophilus spores; details: 5 minutes vaporization, no revaporization
From the text: In Example 1, the following items were placed in a CSR-wrapped tray in a 173 L sterilization chamber: Open Petri dish 2.48 mm id×50 cm Teflon lumen 2.48 mm id×75 cm Teflon lumen 2.48 mm id×100 cm Teflon lumen 40 pieces of medical devices The Petri dish contained a biological challenge consisting of 2.2×10^6 Bacillus stearothermophilus spores on a stainless steel coupon. A coupon was also placed in the center of each of the three lumens. The coupon in the Petri dish was used as a test of the effectiveness of the method at sterilizing the exterior of a device, and the coupons in the lumens were a test of the effectiveness of sterilizing the interior of the lumens. Three experiments were performed in which 1, 2, and 3 g of 59 wt % hydrogen peroxide were introduced into the vaporizer after the chamber was evacuated to 0.4 torr and allowed to vaporize and diffuse into the chamber for 5 minutes.

[2] = tested on: Bacillus stearothermophilus spores; details: 3 g of 59% hydrogen peroxide, 5 Minutes Vaporization
From the text: (§1) The Petri dish contained a biological challenge consisting of 2.2×10^6 Bacillus stearothermophilus spores on a stainless steel coupon. A coupon was also placed in the center of each of the three lumens. The coupon in the Petri dish was used as a test of the effectiveness of the method at sterilizing the exterior of a device, and the coupons in the lumens were a test of the effectiveness of sterilizing the interior of the lumens. In Example 2, the test of Example 1 with 3 g of 59% hydrogen peroxide was repeated with the addition of 20 minutes exposure time to the hydrogen peroxide vapor.

[3] = tested on: Bacillus stearothermophilus spores; details: 3 g of 59 wt % hydrogen peroxide, 5 Minutes Vaporization and 20 Minutes Diffusion
From the text: as §1, with “lumens.” for “lumens. In Example 2, the test of Example 1 with 3 g of 59% hydrogen peroxide was repeated with the addition of 20 minutes exposure time to the hydrogen peroxide vapor.”
In Example 3, the pressure in the sterilization chamber was reduced to 0.4 torr, a total of 3 g of 59 wt % hydrogen peroxide was placed in the vaporizer, and the hydrogen peroxide was vaporized and diffused into the sterilization chamber for 5 minutes. The hydrogen peroxide was then allowed to diffuse at various pressures for 20 minutes. The pressure in the sterilization chamber was at constant pressure by controlling the pressure with an automatic valve between the sterilization chamber and the vacuum pump.
The experiment on the first line of Table 5 is the control experiment, in which the hydrogen peroxide was vaporized into the chamber and allowed to diffuse with the valve between the sterilization chamber and the vacuum pump closed. The pressure in the sterilization chamber was 9.5 torr, which is higher than the vapor pressure of 43 mole % hydrogen peroxide/water solution at 20° C., the approximate temperature of the equipment in the sterilization chamber, as shown in Table 2.
In the experiments described on the following lines of Table 5, the 3 grams of 59 wt % hydrogen peroxide was vaporized for 5 minutes.
The pressure in the sterilization chamber was then reduced, and the condensed vapor was vaporized and allowed to diffuse at constant pressure for 20 minutes. The interior of the sterilization chamber was maintained at a constant pressure by the automatic valve between the sterilization chamber and the vacuum pump. The constant pressure in the sterilization chamber ranged from 7 torr to 1 torr.
In the examples on the following lines, the same procedure was followed, vaporizing 3 g of 59 wt % hydrogen peroxide for 5 minutes and diffusing at constant pressure for 20 minutes. The constant diffusion pressure ranged from 1 to 6 torr.

[4] = tested on: Bacillus stearothermophilus spores; details: 3 g of 59 wt % hydrogen peroxide, 5 Minutes Vaporization and 20 Minutes Diffusion; remark: listed apart in the source
Description: as §1, with “lumens.” for “lumens. In Example 2, the test of Example 1 with 3 g of 59% hydrogen peroxide was repeated with the addition of 20 minutes exposure time to the hydrogen peroxide vapor.”
In this example, the procedure of Example 3 was carried out, but the valve between the sterilization chamber and the vacuum pump was closed after the desired pressure was reached. In Example 3, constant pressure was maintained throughout the 20 minutes of diffusion.
The Petri dish and three lumens were placed in a tray in a 173 L sterilization chamber, and the chamber was evacuated to 0.4 torr. A total of 3 g of 59 wt % hydrogen peroxide was vaporized in the vaporizer and diffused into the sterilization chamber over a period of 5 minutes, and the pressure in the sterilization chamber was reduced to the desired value, and the valve between the sterilization chamber and the vacuum pump was closed. The hydrogen peroxide was then allowed to diffuse in the sterilization chamber for 20 minutes.

[5] = tested on: Bacillus stearothermophilus spores; details: 3 g of 57% hydrogen peroxide, 5 Minutes Vaporization
From the text: The Petri dish contained a biological challenge consisting of 2.2×10^6 Bacillus stearothermophilus spores on a stainless steel coupon. A coupon was also placed in the center of each of the three lumens. The coupon in the Petri dish was used as a test of the effectiveness of the method at sterilizing the exterior of a device, and the coupons in the lumens were a test of the effectiveness of sterilizing the interior of the lumens. In Example 5, the Petri dish and three lumens were placed in a tray with 40 medical devices in the sterilization chamber, the chamber was evacuated to 0.4 torr, 3 g of 57% hydrogen peroxide were vaporized into the chamber over 5 minutes, and the chamber was vented to 1 atmosphere. The hydrogen peroxide was then allowed to diffuse for a total of 20 minutes, either at 1 atmosphere pressure or 4 torr. In the first experiment in Table 7, the sterilization chamber was vented to atmosphere after the hydrogen peroxide was vaporized into the sterilization chamber, and the hydrogen peroxide vapor was allowed to diffuse at 1 atmosphere for 19.5 minutes. […] The first experiment was the control experiment for the second experiment. In the second experiment in Table 7, the sterilization chamber was vented to atmosphere for 0.5 minutes, then the pressure in the sterilization chamber was reduced to 4 torr and controlled at that pressure for a total of 19.5 minutes.

[6] = tested on: Bacillus stearothermophilus spores
From the text: The Petri dish contained a biological challenge consisting of 2.2×10^6 Bacillus stearothermophilus spores on a stainless steel coupon. A coupon was also placed in the center of each of the three lumens. The coupon in the Petri dish was used as a test of the effectiveness of the method at sterilizing the exterior of a device, and the coupons in the lumens were a test of the effectiveness of sterilizing the interior of the lumens. In the following experiment, the condensed hydrogen peroxide was revaporized multiple times. The following procedure was followed in the experiment. A tray containing the Petri dish and three lumens with inoculated blades was placed in a 173 L sterilization chamber, as in the other examples, and the chamber was evacuated to 0.4 torr. The experiment with multiple revaporizations was conducted as follows: 1. 3 grams of 59% hydrogen peroxide were introduced into the vaporizer. 2. The hydrogen peroxide was vaporized and introduced into the sterilization chamber over a period of 5 minutes. 3. The pressure was reduced to 4 torr for 5 minutes to revaporize the hydrogen peroxide. 4. The sterilization chamber was vented to 1 atmosphere pressure for 0.5 minutes to condense the vapor again. 5. The pressure in the sterilization chamber was reduced to 4 torr and maintained at a constant pressure of 4 torr for 14.5 minutes. The total cycle lasted 25 minutes.

[7] = Reducing and controlling at 1 torr
[8] = Reducing and controlling at 2 torr
[9] = Reducing and controlling at 3 torr
[10] = Reducing and controlling at 4 torr
[11] = Reducing and controlling at 5 torr
[12] = Reducing and controlling at 6 torr
[13] = Reducing and controlling at 7 torr
[14] = Without pump-down, final pressure about 9.5 torr
[15] = Valve closed at 1 torr, final pressure about 1.7 torr
[16] = Valve closed at 2 torr, final pressure about 2.8 torr
[17] = 0.5 Minutes Vent Plus 19.5 Minutes Reducing and Controlling at 4 Torr
[18] = 0.5 Minutes Vent Plus 19.5 Minutes at 1 Atm.
[19] = 3 grams of 59% hydrogen peroxide, Cycle with Two-Vaporization Process: 5 minutes vaporization, 4 torr 5 minutes, vent 1 atmosphere 0.5 minutes, 4 torr 14.5 minutes
[20] = control: 5 Minutes Vaporization plus 20 Minutes Diffusion at 1 atm.

With OO [hydrogen peroxide] the “Sterility Results In 2.48 mm × 50 cm Teflon lumen” value ([1]; 1 g 59% hydrogen peroxide) was “−”, the “Sterility Results In 2.48 mm × 75 cm Teflon lumen” value ([1]; 1 g 59% hydrogen peroxide) was “+” and the “Sterility Results In 2.48 × 100 cm Teflon lumen” value ([1]; 1 g 59% hydrogen peroxide) was “+”. For the same molecule, the “Sterility Results In Open Petri Dish” value ([1]; 1 g 59% hydrogen peroxide) was “−”, the “Sterility Results In 2.48 mm × 50 cm Teflon lumen” value ([1]; 2 g 59% hydrogen peroxide) was “−” and the “Sterility Results In 2.48 mm × 75 cm Teflon lumen” value ([1]; 2 g 59% hydrogen peroxide) was “+”. For the same molecule, the “Sterility Results In 2.48 × 100 cm Teflon lumen” value ([1]; 2 g 59% hydrogen peroxide) was “+”, the “Sterility Results In Open Petri Dish” value ([1]; 2 g 59% hydrogen peroxide) was “−” and the “Sterility Results In 2.48 mm × 50 cm Teflon lumen” value ([1]; 3 g 59% hydrogen peroxide) was “−”. The “Sterility Results In 2.48 mm × 75 cm Teflon lumen” value ([1]; 3 g 59% hydrogen peroxide) was “+”, the “Sterility Results In 2.48 × 100 cm Teflon lumen” value ([1]; 3 g 59% hydrogen peroxide) was “+” and the “Sterility Results In Open Petri Dish” value ([1]; 3 g 59% hydrogen peroxide) was “−”. For the same molecule, the “Sterility Results In 2.48 mm × 50 cm lumen” value ([2]; Diffusion Time 0 Minute) was “−”, the “Sterility Results In 2.48 mm × 75 cm lumen” value ([2]; Diffusion Time 0 Minute) was “+” and the “Sterility Results In 2.48 × 100 cm lumen” value ([2]; Diffusion Time 0 Minute) was “+”. For the same molecule, the “Sterility Results In Open Petri Dish” value ([2]; Diffusion Time 0 Minute) was “−”, the “Sterility Results In 2.48 mm × 50 cm lumen” value ([2]; Diffusion Time 20 Minutes) was “−” and the “Sterility Results In 2.48 mm × 75 cm lumen” value ([2]; Diffusion Time 20 Minutes) was “+”. The “Sterility Results In 2.48 × 100 cm lumen” value ([2]; Diffusion Time 20 Minutes) was “+”, the “Sterility Results In Open Petri Dish” value ([2]; Diffusion Time 20 Minutes) was “−” and the “Sterility Results In 2.48 mm × 50 cm lumen” value [3, 7] was “−”. For the same molecule, the “Sterility Results In 2.48 mm × 75 cm lumen” value [3, 7] was “+”, the “Sterility Results In 2.48 mm × 100 cm lumen” value [3, 7] was “+” and the “Sterility Results In Open Petri Dish” value [3, 7] was “−”. The “Sterility Results In 2.48 mm × 50 cm lumen” value [3, 8] was “−”, the “Sterility Results In 2.48 mm × 75 cm lumen” value [3, 8] was “−” and the “Sterility Results In 2.48 mm × 100 cm lumen” value [3, 8] was “+”. For the same molecule, the “Sterility Results In Open Petri Dish” value [3, 8] was “−”, the “Sterility Results In 2.48 mm × 50 cm lumen” value [3, 9] was “−” and the “Sterility Results In 2.48 mm × 75 cm lumen” value [3, 9] was “−”. The “Sterility Results In 2.48 mm × 100 cm lumen” value [3, 9] was “−”, the “Sterility Results In Open Petri Dish” value [3, 9] was “−” and the “Sterility Results In 2.48 mm × 50 cm lumen” value [3, 10] was “−”. The “Sterility Results In 2.48 mm × 75 cm lumen” value [3, 10] was “−”, the “Sterility Results In 2.48 mm × 100 cm lumen” value [3, 10] was “−” and the “Sterility Results In Open Petri Dish” value [3, 10] was “−”. The “Sterility Results In 2.48 mm × 50 cm lumen” value [3, 11] was “−”, the “Sterility Results In 2.48 mm × 75 cm lumen” value [3, 11] was “−” and the “Sterility Results In 2.48 mm × 100 cm lumen” value [3, 11] was “−”. The “Sterility Results In Open Petri Dish” value [3, 11] was “−”, the “Sterility Results In 2.48 mm × 50 cm lumen” value [3, 12] was “−” and the “Sterility Results In 2.48 mm × 75 cm lumen” value [3, 12] was “−”. For the same molecule, the “Sterility Results In 2.48 mm × 100 cm lumen” value [3, 12] was “−”, the “Sterility Results In Open Petri Dish” value [3, 12] was “−” and the “Sterility Results In 2.48 mm × 50 cm lumen” value [3, 13] was “−”. For the same molecule, the “Sterility Results In 2.48 mm × 75 cm lumen” value [3, 13] was “−”, the “Sterility Results In 2.48 mm × 100 cm lumen” value [3, 13] was “+” and the “Sterility Results In Open Petri Dish” value [3, 13] was “−”. For the same molecule, the “Sterility Results In 2.48 mm × 50 cm lumen” value [3, 14] was “−”, the “Sterility Results In 2.48 mm × 75 cm lumen” value [3, 14] was “+” and the “Sterility Results In 2.48 mm × 100 cm lumen” value [3, 14] was “+”. The “Sterility Results In Open Petri Dish” value [3, 14] was “−”, the “Sterility Results In 2.48 mm × 50 cm lumen” value [4, 15] was “−” and the “Sterility Results In 2.48 mm × 75 cm lumen” value [4, 15] was “−”. For the same molecule, the “Sterility Results In 2.48 mm × 100 cm lumen” value [4, 15] was “+”, the “Sterility Results In Open Petri Dish” value [4, 15] was “−” and the “Sterility Results In 2.48 mm × 50 cm lumen” value [4, 16] was “−”. For the same molecule, the “Sterility Results In 2.48 mm × 75 cm lumen” value [4, 16] was “−”, the “Sterility Results In 2.48 mm × 100 cm lumen” value [4, 16] was “−” and the “Sterility Results In Open Petri Dish” value [4, 16] was “−”. The “Sterility Results In 2.48 mm × 50 cm lumen” value [5, 17] was “−”, the “Sterility Results In 2.48 × 75 cm Lumen” value [5, 17] was “−” and the “Sterility Results In 2.48 × 100 cm lumen” value [5, 17] was “−”. For the same molecule, the “Sterility Results In Open Petri Dish” value [5, 17] was “−”, the “Sterility Results In 2.48 mm × 50 cm lumen” value [5, 18] was “−” and the “Sterility Results In 2.48 × 75 cm Lumen” value [5, 18] was “+”. The “Sterility Results In 2.48 × 100 cm lumen” value [5, 18] was “+”, the “Sterility Results In Open Petri Dish” value [5, 18] was “−” and the “Sterility Results In 2.48 mm × 50 cm lumen” value [6, 19] was “−”. For the same molecule, the “Sterility Results In 2.48 mm × 75 cm lumen” value [6, 19] was “−”, the “Sterility Results In 2.48 mm × 100 cm lumen” value [6, 19] was “−” and the “Sterility Results In Open Petri Dish” value [6, 19] was “−”. For the same molecule, the “Sterility Results In 2.48 mm × 50 cm lumen” value [6, 20] was “−”, the “Sterility Results In 2.48 mm × 75 cm lumen” value [6, 20] was “+” and the “Sterility Results In 2.48 mm × 100 cm lumen” value [6, 20] was “+”. For the same molecule, the “Sterility Results In Open Petri Dish” value [6, 20] was “−”.
